≈ marks a conversion by molar mass, not a printed value. Like-named read-outs stand apart in the source and are kept apart here. Non-standard residues stand in square brackets, D forms with d. Residues, ends and D or L forms follow the SMILES beside them. AEEA = NCCOCCOCC(=O)O
Key:
S. aureus USA300 [1] = assay: LIVE/DEAD BacLight staining (SYTO9/PI); type: cell-based, Staphylococcus aureus; conditions: 3 h, n = 2
Experimental: USA300 cells were collected from overnight cultures, at the end of the exponential growth phase and the beginning of the stationary phase, washed and suspended at 2 × 10^7 bacteria/mL and staphylococci were treated with DAL-PEG-DK5 (0.5–50 µg/mL) for 3 h. In order to obtain a standard curve, five different proportions of live and dead bacteria were mixed prior to staining. After the incubation, the 100 µL of bacterial suspensions were transferred to flat bottom black 96-well microtitration plate. Staining solution containing SYTO9 and PI (100 µL) prepared according to manufacturer’s instructions was then mixed with bacterial suspensions. Samples were incubated at room temperature in the dark for 15 min and fluorescence intensity was measured with FlexStation3 Multimode Microplate Reader using a 485 nm excitation filter (for both SYTO9 and PI) and a 530 nm (SYTO9 emission wavelength) and 630 nm (PI emission wavelength) emission filter. The data were analyzed by dividing the fluorescence intensity of the stained bacterial suspensions at green emission by the cell fluorescence intensity of red fluorescence. All samples were prepared in triplicates.

[2] = system: S. aureus USA300 cytoplasmic membrane; assay: Sytox green uptake (membrane permeabilization); type: cell-based, Staphylococcus aureus
Experimental: The USA300 strain was grown to mid-logarithmic phase at 37 °C, washed, and resuspended in 10 mM sodium phosphate buffer (pH 7.2) Bacterial cells were then incubated with 1 µM Sytox green for 15 min in the dark. After the addition of desired concentration of peptide conjugate (5–100 µg/mL), the time-dependent increases in fluorescence caused by the binding of the cationic dye to intracellular DNA were monitored (excitation at 485 nm and emission at 520 nm).

HaCaT cells [3] = assay: MTT cell viability test; type: cell-based, human
Experimental: (§1) Figure 3 The influence of DAL-PEG-DK5 on physiology of human keratinocytes. The potentially toxic effect of DAL-PEG-DK5 on HaCaT cells was evaluated using (A) MTT and (B) LDH assay. Cells were plated on 96-well plates and incubated overnight. Next, keratinocytes were treated with the peptide at different concentrations (5–200 μg/mL) for 3, 6, 18 h. Mean ± SD n = 2. ** p < 0.005 *** p < 0.001 **** p < 0.0001; 2way ANOVA. (C) Morphology of HaCaT cells was examined by confocal laser scanning microscopy. HaCaT cells were treated with CFS-conjugated DAL-PEG-DK5 (25 μg/mL) for 30 min at 37 °C and were stained with: DAPI and phalloidin for nuclear detection and actin cytoskeleton detection, respectively. Blue – DNA; red – f-actin; green-peptide conjugate; scale bar: 10 μm. Images present single slice of XY stacks.
The viability of HaCaT cells was examined by a 3-(4,5-dimethylthiazol-2-yl)-2,5-diphenyltetrazolium bromide (MTT, Sigma-Aldrich) reduction assay. In brief, cells were incubated with 10% (v/v) of a 5 mg/mL MTT solution for 1 to 2 h at 37 °C until purple precipitate is visible and acidified isopropanol was added followed by measuring of the absorbance at a wavelength of 570 nm.

HaCaT cells [4] = assay: LDH release assay (CytoTox96); type: cell-based, human; conditions: for cytotoxicity (LDH), % of cells: HaCaT, 200 μg/mL
Experimental: as §1
To assess the effect of peptides on the integrity of the plasma membrane, the LDH release assay was performed using the CytoTox96 nonradioactive cytotoxicity assay kit (Promega, Madison, WI, USA) according to the manufacturer’s instructions. Cytotoxicity was calculated with the formula: % cytotoxicity = 100 × (experimental LDH release/ maximum LDH release), where maximum LDH release is after lysis solution addition (Triton X-100). Relative amounts of LDH release were measured (absorbance at 490 nm) using plate reader SpectraMax (Molecular Device, Wokingham, UK). All assays were performed in triplicate.

S. aureus USA300 [5] = conditions: MRSA; equal to 40 μg/mL
Experimental: (§2) Antimicrobial activity of peptides was analyzed through determination of MIC parameter according to the standard microdilution technique performed on 96-well plates. Mueller-Hinton broth (MHB, Sigma Aldrich, St. Louis, MO, USA) was used as the working medium for all bacterial strains. Briefly, inoculum was prepared from freshly grown cultures of bacteria being at their exponential phase of growth. Each well of 96-well plates containing 100 µL of serially diluted peptides in PBS at desired concentration was inoculated with 100 µL of 10^5 CFU/mL of bacterial suspension. Then plates were incubated overnight 37 °C and absorbance was read at 600 nm after 24 h. Wells without peptide were treated as the positive control, while uninoculated MHB was defined as the negative control. All measurements were run in triplicates.

[6] = system: S. epidermidis ATCC 12228; conditions: S. epidermidis ATCC 12228; broth microdilution, MHB, 37 °C, 24 h, triplicates
Experimental: as §2

[7] = system: MRSA clinical isolate 1694; conditions: MRSA clinical isolate 1694 (blood); broth microdilution, MHB, 24 h
Experimental: as §2

[8] = system: MRSA clinical isolate 2492; conditions: MRSA clinical isolate 2492 (blood); broth microdilution, MHB, 24 h
Experimental: as §2

[9] = system: MRSA clinical isolate 2706; conditions: MRSA clinical isolate 2706 (blood); broth microdilution, MHB, 24 h
Experimental: as §2

[10] = system: MRSA clinical isolate 2872cv; conditions: MRSA clinical isolate 2872cv (blood); broth microdilution, MHB, 24 h
Experimental: as §2

[11] = system: MRSA clinical isolate 7718; conditions: MRSA clinical isolate 7718 (blood); broth microdilution, MHB, 24 h
Experimental: as §2

[12] = system: MRSA S. aureus strains (clinical isolates)
Experimental: as §2

[13] = cited from earlier work
Description: The efficient antibacterial activity of the DAL-PEG-DK5 conjugate may be due to the fact that it has a higher cationic charge than DK5 (+7 vs. +6, respectively). However, a α-helicity must also play an important role in this case. According to a common view about the mechanism underlying the antimicrobial activity of AMPs, formation of hel ...

S. aureus USA300 biofilm = assay: Disruption of mature biofilm, crystal violet; conditions: mature biofilm (24 h) of USA300, peptide at 4 × MIC (160 μg/mL), n = 3
Experimental: USA300 strain was grown in 96-well plates at 37 °C for 24 h to form biofilm. Peptide was added at desired concentrations and plates were incubated for additional 24 h. […] Mean ± SD n = 3. ** p < 0.0151; one-way ANOVA.
Briefly, USA300 strain grown overnight was diluted 1:100 in TSB + 1% glucose and incubated in 96-well plates at 37 °C for 24 h. After removing media, wells were rinsed with PBS to remove planktonic bacteria before re-filling wells with fresh MHB. Peptide conjugates were added at desired concentrations and plates were incubated at 37 °C for 24 h. After incubation, wells were washed and biofilms were stained with 0.5% (w/v) crystal violet for 30 min. The dye was solubilized with ethanol (95%) and the OD of biofilms was measured.

[14] = system: intracellular S. aureus USA300 in HaCaT cells; assay: Killing of intracellular S. aureus in keratinocytes, CFU count
Experimental: (A) USA300 survival within infected HaCaT cells. Keratinocytes were infected with USA300 (MOI 1:5, 1:25, 1:50, 1:100) for 2.5 h and treated with DAL-PEG-DK5 (50 μg/mL) for 3 h. Afterwards, keratinocytes were lysed and plated on agar plates for counting of bacteria. The number of viable bacterial cells is expressed as CFU/mL with respect to the number of intracellular bacteria in the corresponding control samples. The data shown is representative of two separate experiments performed in triplicate. Mean ± SD n = 2. * p < 0.01; ** p < 0.005; one-way ANOVA. (B) Keratinocytes were infected with USA300 (MOI 1:50) for 2.5 h and treated with DAL-PEG-DK5 (50 μg/mL) for indicated time points (1, 3, 6 h). Afterwards, keratinocytes were lysed and plated on agar plates for counting of bacteria. The number of viable bacterial cells is expressed as a CFU/mL with respect to the number of intracellular bacteria in the corresponding control samples. Mean ± SD n = 2. * p < 0.01; ** p < 0.005; **** p < 0.0001; one-way ANOVA. […] (C) Keratinocytes were infected with USA300 (MOI 1:50) for 2.5 h and treated with DAL-PEG-DK5 (50 μg/mL) for 1 h. Afterwards, keratinocytes were lysed and plated on agar plates for counting of bacteria. […] The number of viable bacterial cells is expressed as a % of control with respect to the number of intracellular bacteria/bacteria in suspension in the corresponding control samples. […]

CC[C@H](C)[C@H](NC(=O)COCCOCCNC(=O)[C@H](CCCNC(=N)N)NC(=O)[C@H](CC(C)C)NC(=O)[C@H](Cc1ccccc1)NC(=O)CNC(=O)[C@@H](C)NC(=O)[C@@H](N)Cc1ccc(O)cc1)C(=O)N[C@@H](CCCCN)C(=O)N[C@@H](CCCCN)C(=O)N[C@H](C(=O)N[C@@H](CC(C)C)C(=O)N[C@@H](CO)C(=O)N[C@H](CCCCN)C(=O)N[C@H](C(=O)N[C@@H](CCCCN)C(=O)N[C@@H](CCCCN)C(=O)N[C@@H](CC(C)C)C(=O)N[C@@H](CC(C)C)C(N)=O)[C@@H](C)CC)[C@@H](C)CC [DAL-PEG-DK5] (H-Y[dA]GFLR[AEEA]IKKILS[dK]IKKLL-NH2; N-terminus assumed)
live bacteria (S. aureus USA300 [1]; USA300, 5 μg/mL): 20%
live bacteria (S. aureus USA300 [1]; USA300, 10 μg/mL): 5%
permeabilization of the cell membrane ([2]; 5 min post-treatment, peptide 10 μg): marked permeabilization of the cell membrane
concentration at which permeabilization of the bacterial membrane reached a plateau ([2]; USA300, 1 μM Sytox green, 10 mM sodium phosphate buffer pH 7.2, up to 60 min): 25 µg/mL
effect on metabolism of HaCaT cells (MTT) (HaCaT cells [3]; 5 to 75 μg/mL, 3, 6 and 18 h, n = 2): did not affect the metabolism of HaCaT cells
effect on metabolically active HaCaT cells (MTT) (HaCaT cells [3]; 100 or 200 μg/mL, 3, 6, 18 h): reduced the number of metabolically active cells in a concentration-dependent manner
LDH release from HaCaT cells (HaCaT cells [4]; 75 μg/mL): low, but still significant, release of dehydrogenase
cytotoxicity (LDH), % of cells (HaCaT cells [4]; 3 and 6 h): 40%
cytotoxicity (LDH), % of cells (HaCaT cells [4]; 18 h): 100%
non-toxic dose for HaCaT cells (HaCaT cells [4]; based on MTT and LDH data): ≤ 50 µg/mL
MIC (S. aureus USA300 [5]): 17.56 µM (≈ 40 µg/mL)
MIC [6]: 60 µg/mL (≈ 26.4 µM)
MIC [7]: 70 µg/mL (≈ 30.7 µM)
MIC [8]: 40 µg/mL (≈ 17.6 µM)
MIC [9]: 40 µg/mL (≈ 17.6 µM)
MIC [10]: 40 µg/mL (≈ 17.6 µM)
MIC [11]: 50 µg/mL (≈ 22 µM)
MIC against the majority of tested MRSA strains (90%) ([12]; conversion of 40 μg/mL): 17.56 µM
MIC against the majority of tested MRSA strains (90%) ([12]; estimate of the discussion): 40 µg/mL
α-helical content ([13]; circular dichroism, 30 mM SDS in water): 35%
cationic charge [13]: +7
reduction of biofilm mass (S. aureus USA300 biofilm): 50%
reduction of intracellular USA300 load ([14]; HaCaT infected 2.5 h at MOI 1:50 and 1:100, peptide 50 μg/mL, 3 h): more than 60%
reduction of MRSA load in keratinocytes ([14]; HaCaT, USA300 MOI 1:50, peptide 50 μg/mL (1.25 × MIC), 1 h, n = 2): 71.5%

Reference: PMC6801822, “The Bactericidal Activity of Temporin Analogues Against Methicillin Resistant Staphylococcus aureus” (International Journal of Molecular Sciences, 2019)
